Data taken from patent publication US20160220569A1, “CDK4/6 Inhibitor Dosage Formulations For The Protection Of Hematopoietic Stem And Progenitor Cells During Chemotherapy” (G1 Therapeutics, Inc., priority 2015, published 2016).
“And” between values parts separate entries of the source, which are not always exact repeats. Equal entries are not always repeated. Where two headings read alike, the source gives them in different places.

Legend:
[1] = 3-compartment model pharmacokinetic analysis, Cohorts 5 and 6; format: in vivo, human; settings: for half-life: read-out: γ phase half-life averaged (converted)
Text: The concentration-time profile is represented by a tri-exponential equation similar to the following: […]
Where A, B, and C are the ‘macroconstants’ which are a function of the dose, volume of distribution and the ‘microconstants’ (K12, K21, K13, K31, and K10).
Five of these parameters are rate constants and the 6th is the volume of distribution of the central compartment (V1).

Target lesions = test: Tumor response, Compound 1 with etoposide and carboplatin; format: in vivo, human; set-up: Cycle 2 Target Lesion Sum / Cycle4 Target Lesion Sum / Cycle 6 Target Lesion Sum: unit not given here
Text: As shown in FIG. 64 all 6 patients had at least partial responses during the course of 2 to 6 cycles of chemotherapy. Target lesions were summed and response tabulated as follows: […]

bone marrow cells = test: Bone marrow EdU incorporation (S-phase) after single dose in dogs; format: in vivo; settings: increasing single doses, 8 and 16 hours
[2] = Compound 1 PK dosed Days 1-3 with etoposide and carboplatin; format: in vivo, human
Experimental: Analysis of plasma concentration versus time data for calculation of standard pharmacokinetic (PK) parameters following intravenous infusion administration was conducted using Phoenix WinNonlin version 6.3 using a nominal infusion duration and scheduled blood sampling times.

[3] = Cohort 5, 96 mg/m^2, 3-compartment primary parameter, subjects 1-6, Mean, Median, mean
[4] = Compound 1 200 mg/m^2 followed by etoposide and carboplatin, individual subjects
[5] = 200 mg/m^2 with Etoposide and Carboplatin, Day 1, Max
[6] = 200 mg/m^2 with Etoposide and Carboplatin, Day 1, Min
[7] = 200 mg/m^2 with Etoposide and Carboplatin, Day 1, individual subjects
[8] = 200 mg/m^2 with Etoposide and Carboplatin, Day 3, Max
[9] = 200 mg/m^2 with Etoposide and Carboplatin, Day 3, Min
[10] = 200 mg/m^2 with Etoposide and Carboplatin, Day 3, individual subjects

## CN1CCN(c2ccc(Nc3ncc4cc5n(c4n3)C3(CCCCC3)CNC5=O)nc2)CC1 [Compound 1, 2′-((5-(4-methylpiperazin-1-yl)pyridin-2-yl)amino)-7′,8′-dihydro-6′H-spiro[cyclohexane-1,9′-pyrazino[1′,2′:1,5]pyrrolo[2,3-d]pyrimidin]-6′-one]
[1]; [3]
  Beta: 0.388 h⁻¹
  Gamma: 0.0502 h⁻¹
  K31: 0.0692 h⁻¹
[1]; both sexes, human, plasma, intravenous, 96 mg/m2, Cohort 5, 96 mg/m^2, 3-compartment secondary (derived) parameter, six subjects, Mean, Median, read-out: Cmax
  Cmax: 991 ng/mL
[1]; both sexes, human, plasma, intravenous, 96 mg/m2, 96 mg/m^2, 3-compartment model, mean
  half-life: 14.2 h
[1]; both, human, plasma, intravenous, […]2
  half-life: 14 h
Target lesions; [4]
  Cycle 2 Target Lesion Sum: 74 and 22 and 76 and 161 and 50 and 35
  Cycle4 Target Lesion Sum: 54 and 0 (2×) and 62 and 146
  Cycle 6 Target Lesion Sum: 47 and 0
Target lesions; Compound 1 200 mg/m^2 with etoposide and carboplatin, 2 to 6 cycles, 6 patients
  patients with at least partial responses: 6 patients
Bone marrow cells
  bone marrow cells in S phase: decrease in the number of cells in S phase
[2]; [5]
  AUCinf: 3320 ng·h/mL
  Cmax: 2170 ng/mL
  t½: 10.6 h
[2]; [6]
  AUC24.5: 1530 ng·h/mL
  AUCinf: 1650 ng·h/mL
  Cmax: 587 ng/mL
  t½: 6.29 h
[2]; [7]
  AUC24.5: 2850 ng·h/mL and 1930 ng·h/mL and 2010 ng·h/mL and 2520 ng·h/mL and 1530 ng·h/mL
  AUCinf: 2960 ng·h/mL and 3320 ng·h/mL and 2290 ng·h/mL and 2680 ng·h/mL and 1650 ng·h/mL
  Cmax: 2170 ng/mL and 742 ng/mL and 845 ng/mL and 1840 ng/mL and 587 ng/mL
  t½: 8.94 h and 10.6 h and 8.91 h and 7.09 h and 7.28 h
[2]; [8]
  AUCτ: 3300 ng·h/mL
  Cmax: 3360 ng/mL
[2]; [9]
  AUCτ: 2010 ng·h/mL
  Cmax: 355 ng/mL
  t½: 6.99 h
[2]; [10]
  AUCτ: 3300 ng·h/mL and 2010 ng·h/mL and 2630 ng·h/mL and 2610 ng·h/mL and 2890 ng·h/mL
  Cmax: 723 ng/mL and 355 ng/mL and 1190 ng/mL and 3360 ng/mL
[2]; Day 3, mean
  pre-dose concentration averaging: 20.6 ng/mL
[2]; human, plasma, intravenous, 200 mg/m2, 200 mg/m^2 with Etoposide and Carboplatin, Day 1, Geo. Mean, read-out: AUC24.5
  AUC: 2230 ng·h/mL
[2]; human, plasma, intravenous, 200 mg/m2, 200 mg/m^2 with Etoposide and Carboplatin, Day 1, Geo. Mean, read-out: AUCinf
  AUC(0-inf): 2470 ng·h/mL
[2]; human, plasma, intravenous, 200 mg/m2, 200 mg/m^2 with Etoposide and Carboplatin, Day 1, Geo. Mean, read-out: Cmax
  Cmax: 1070 ng/mL
[2]; human, plasma, intravenous, 200 mg/m2, 200 mg/m^2 with Etoposide and Carboplatin, Day 1, Geo. Mean, read-out: t½ (converted)
  half-life: 8.07 h
[2]; human, plasma, intravenous, 200 mg/m2, 200 mg/m^2 with Etoposide and Carboplatin, Day 1, Mean, read-out: AUCinf
  AUC(0-inf): 2530 ng·h/mL
[2]; human, plasma, intravenous, 200 mg/m2, 200 mg/m^2 with Etoposide and Carboplatin, Day 1, Mean, read-out: Cmax
  Cmax: 1200 ng/mL
[2]; human, plasma, intravenous, 200 mg/m2, 200 mg/m^2 with Etoposide and Carboplatin, Day 1, Mean, read-out: t½ (converted)
  half-life: 8.19 h
[2]; human, plasma, intravenous, 200 mg/m2, 200 mg/m^2 with Etoposide and Carboplatin, Day 1, Median, read-out: AUC24.5
  AUC: 2270 ng·h/mL
[2]; human, plasma, intravenous, 200 mg/m2, 200 mg/m^2 with Etoposide and Carboplatin, Day 1, Median, read-out: AUCinf
  AUC(0-inf): 2490 ng·h/mL
[2]; human, plasma, intravenous, 200 mg/m2, 200 mg/m^2 with Etoposide and Carboplatin, Day 1, Median, read-out: Cmax
  Cmax: 923 ng/mL
[2]; human, plasma, intravenous, 200 mg/m2, 200 mg/m^2 with Etoposide and Carboplatin, Day 1, Median, read-out: t½ (converted)
  half-life: 8.09 h
[2]; human, plasma, intravenous, 200 mg/m2, 200 mg/m^2 with Etoposide and Carboplatin, Day 1, individual subjects, read-out: AUC24.5
  AUC: 2860 ng·h/mL
[2]; human, plasma, intravenous, 200 mg/m2, 200 mg/m^2 with Etoposide and Carboplatin, Day 1, individual subjects, read-out: t½ (converted)
  half-life: 6.29 h
[2]; human, plasma, intravenous, 200 mg/m2, 200 mg/m^2 with Etoposide and Carboplatin, Day 3, Geo. Mean, read-out: AUCτ
  AUC: 2530 ng·h/mL
[2]; human, plasma, intravenous, 200 mg/m2, 200 mg/m^2 with Etoposide and Carboplatin, Day 3, Geo. Mean, read-out: Cmax
  Cmax: 1090 ng/mL
[2]; human, plasma, intravenous, 200 mg/m2, 200 mg/m^2 with Etoposide and Carboplatin, Day 3, Geo. Mean, read-out: t½ (converted)
  half-life: 8.95 h
[2]; human, plasma, intravenous, 200 mg/m2, 200 mg/m^2 with Etoposide and Carboplatin, Day 3, Mean, read-out: AUCτ
  AUC: 2570 ng·h/mL
[2]; human, plasma, intravenous, 200 mg/m2, 200 mg/m^2 with Etoposide and Carboplatin, Day 3, Mean, read-out: Cmax
  Cmax: 1380 ng/mL
[2]; human, plasma, intravenous, 200 mg/m2, 200 mg/m^2 with Etoposide and Carboplatin, Day 3, Mean, read-out: t½ (converted)
  half-life: 9.04 h
[2]; human, plasma, intravenous, 200 mg/m2, 200 mg/m^2 with Etoposide and Carboplatin, Day 3, Median, read-out: AUCτ
  AUC: 2620 ng·h/mL
[2]; human, plasma, intravenous, 200 mg/m2, 200 mg/m^2 with Etoposide and Carboplatin, Day 3, Median, read-out: Cmax
  Cmax: 1100 ng/mL
[2]; human, plasma, intravenous, 200 mg/m2, 200 mg/m^2 with Etoposide and Carboplatin, Day 3, Median, read-out: t½ (converted)
  half-life: 9.15 h
[2]; human, plasma, intravenous, 200 mg/m2, 200 mg/m^2 with Etoposide and Carboplatin, Day 3, individual subjects, read-out: t½ (converted)
  half-life: 9.27 h
[2]; human, plasma, intravenous, 200 mg/m2, 200 mg/m^2 with etoposide and carboplatin, Day 1, mean, read-out: AUCinf averaged
  AUC(0-inf): 2530 ng·h/mL
[2]; human, plasma, intravenous, 200 mg/m2, 200 mg/m^2 with etoposide and carboplatin, Day 1, mean, read-out: Cmax averaged
  Cmax: 1200 ng/mL
[2]; human, plasma, intravenous, 200 mg/m2, 200 mg/m^2 with etoposide and carboplatin, Day 1, mean, read-out: Half-lives averaged (converted)
  half-life: 8.19 h
[2]; human, plasma, intravenous, 200 mg/m2, 200 mg/m^2 with etoposide and carboplatin, Day 1, range, read-out: Half-lives range
  half-life: 6.29 to 10.6 h
[2]; human, plasma, intravenous, 200 mg/m2, 200 mg/m^2 with etoposide and carboplatin, Day 3, mean, read-out: AUCτ averaged
  AUC: 2570 ng·h/mL
[2]; human, plasma, intravenous, 200 mg/m2, 200 mg/m^2 with etoposide and carboplatin, Day 3, mean, read-out: Cmax averaging
  Cmax: 1380 ng/mL
[2]; human, plasma, intravenous, 200 mg/m2, 200 mg/m^2 with etoposide and carboplatin, Day 3, mean, read-out: Half-lives averaged (converted)
  half-life: 9.04 h
[2]; human, plasma, intravenous, 200 mg/m2, 200 mg/m^2 with etoposide and carboplatin, Day 3, range, read-out: Half-lives range
  half-life: 6.99 to 11 h
[2]; human, plasma, intravenous, Day 1, 4 subjects, mean, read-out: concentration at 24.5 hours after the start of infusion, averaging
  concentration at 24.5 h: 20 ng/mL
[2]; human, plasma, intravenous, Day 1, 4 subjects, range, read-out: concentration at 24.5 hours after the start of infusion, range
  concentration at 24.5 h: 11.3 to 35.9 ng/mL
[2]; human, plasma, intravenous, Day 3, mean, read-out: concentration at 24.5 hours after dosing, averaged
  concentration at 24.5 h: 24.6 ng/mL
[2]; human, plasma, intravenous, Day 3, range, read-out: concentration at 24.5 hours after dosing, range
  concentration at 24.5 h: 11.5 to 34.5 ng/mL
